Experimental findings from patent publication US8138183B2, “Morpholino pyrimidine derivatives used in diseases linked to mTOR kinase and/or PI3K” (AstraZeneca AB, priority 2007, dated 2012) are described below.

Read-outs that look alike come from different tables or passages of the source.

The test system of assay [1] is phosphorylation of Serine 473 in Akt. The assay can be described thus: In Vitro phospho-Ser473 Akt Assay, Test (c). In kind it is cell-based. Particulars: MDA-MB-468 human breast adenocarcinoma cells, measured on two occasions, read-out: IC50 versus Serine 473 in Akt. As to the method:
(c) In Vitro phospho-Ser473 Akt Assay
This assay determines the ability of test compounds to inhibit phosphorylation of Serine 473 in Akt as assessed using Acumen Explorer technology (Acumen Bioscience Limited), a plate reader that can be used to rapidly quantitate features of images generated by laser-scanning.
A MDA-MB-468 human breast adenocarcinoma cell line (LGC Promochem, Teddington, Middlesex, UK, Catalogue No. HTB-132) was routinely maintained at 37° C. with 5% CO2 up to a confluency of 70-90% in DMEM containing 10% heat-inactivated FCS and 1% L-glutamine.
For the assay, the cells were detached from the culture flask using ‘Accutase’ (Innovative Cell Technologies Inc., San Diego, Calif., USA; Catalogue No. AT104) using standard tissue culture methods and resuspended in media to give 1.7×10^5 cells per mL. […]
All subsequent aspiration and wash steps were carried out using a Tecan 96 well plate washer (aspiration speed 10 mm/sec). […] An aliquot of PBS (50 μl) was added to each well and the plates were sealed with black plate sealers and the fluorescence signal was detected and analysed.
Fluorescence dose response data obtained with each compound were analysed and the degree of inhibition of Serine 473 in Akt was expressed as an IC50 value.

Another assay has as its target recombinant mTOR (Homo sapiens, UniProt P42345). In words: In Vitro mTOR Kinase Assay, Test (a)(i) (AlphaScreen). It counts as biochemical. To be noted: read-out: IC50 versus mTOR kinase. As for the experimental part:
(a)(i) In Vitro mTOR Kinase Assay
The assay used AlphaScreen technology (Gray et al., Analytical Biochemistry, 2003, 313: 234-245) to determine the ability of test compounds to inhibit phosphorylation by recombinant mTOR.
The HEK293 FLAG-tagged mTOR (1362-2549) stable cell line was routinely maintained at 37° C. with 5% CO2 up to a confluency of 70-90% in Dulbecco's modified Eagle's growth medium (DMEM; Invitrogen Limited, Paisley, UK Catalogue No. 41966-029) containing 10% heat-inactivated foetal calf serum (FCS; Sigma, Poole, Dorset, UK, Catalogue No. F0392), 1% L-glutamine (Gibco, Catalogue No. 25030-024) and 2 mg/ml Geneticin (G418 sulfate; Invitrogen Limited, UK Catalogue No. 10131-027). […]
Each reaction was stopped by the addition of 10 μl of a mixture of EDTA (50 mM), bovine serum albumin (BSA; 0.5 mg/mL) and Tris-HCl pH7.4 buffer (50 mM) containing p70 S6 Kinase (T389) 1A5 Monoclonal Antibody (Cell Signalling Technology, Catalogue No. 9206B) and AlphaScreen Streptavidin donor and Protein A acceptor beads (200 ng; Perkin Elmer, Catalogue No. 6760002B and 6760137R respectively) were added and the assay plates were left for about 20 hours at room temperature in the dark. The resultant signals arising from laser light excitation at 680 nm were read using a Packard Envision instrument. […]
mTOR enzyme inhibition for a given test compound was expressed as an IC50 value.
On the technique in general: Bead proximity is the source of the signal in Alpha formats.

Chain of recombinant mTOR (P42345 1362-2549): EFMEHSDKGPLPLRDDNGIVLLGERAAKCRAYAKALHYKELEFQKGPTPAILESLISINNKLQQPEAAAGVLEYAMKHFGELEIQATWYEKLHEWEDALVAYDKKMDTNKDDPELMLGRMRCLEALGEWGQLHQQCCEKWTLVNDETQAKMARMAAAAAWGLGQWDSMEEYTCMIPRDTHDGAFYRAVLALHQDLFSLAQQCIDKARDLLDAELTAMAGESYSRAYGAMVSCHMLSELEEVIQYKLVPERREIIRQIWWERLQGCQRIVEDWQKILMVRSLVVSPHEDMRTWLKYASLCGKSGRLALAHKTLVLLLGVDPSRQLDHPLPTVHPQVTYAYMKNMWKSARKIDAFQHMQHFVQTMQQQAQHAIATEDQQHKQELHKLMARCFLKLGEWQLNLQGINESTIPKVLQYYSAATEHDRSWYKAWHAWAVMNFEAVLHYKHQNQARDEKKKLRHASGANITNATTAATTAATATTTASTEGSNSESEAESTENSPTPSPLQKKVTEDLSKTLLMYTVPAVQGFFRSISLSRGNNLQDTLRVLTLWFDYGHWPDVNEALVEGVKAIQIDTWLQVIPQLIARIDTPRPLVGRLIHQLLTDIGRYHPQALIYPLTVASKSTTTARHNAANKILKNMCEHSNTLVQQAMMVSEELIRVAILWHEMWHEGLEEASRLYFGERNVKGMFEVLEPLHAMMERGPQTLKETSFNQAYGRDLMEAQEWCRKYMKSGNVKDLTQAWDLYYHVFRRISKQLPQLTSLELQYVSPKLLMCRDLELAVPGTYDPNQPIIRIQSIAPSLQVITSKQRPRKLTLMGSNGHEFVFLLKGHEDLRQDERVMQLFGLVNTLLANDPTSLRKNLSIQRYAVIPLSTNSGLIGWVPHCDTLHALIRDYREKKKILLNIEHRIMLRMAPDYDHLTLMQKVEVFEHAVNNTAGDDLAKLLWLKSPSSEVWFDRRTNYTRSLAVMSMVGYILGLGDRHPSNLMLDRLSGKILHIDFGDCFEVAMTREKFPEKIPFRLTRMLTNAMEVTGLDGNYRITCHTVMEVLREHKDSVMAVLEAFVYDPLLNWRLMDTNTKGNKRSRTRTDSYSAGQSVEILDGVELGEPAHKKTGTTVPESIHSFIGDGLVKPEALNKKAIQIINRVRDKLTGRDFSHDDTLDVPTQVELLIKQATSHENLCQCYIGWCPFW

As to `C[C@H]1COCCN1c1cc(CS(C)(=O)=O)nc(-c2ccc(NC(=S)Nc3ccccc3)cc2)n1` [Example 1b, 1-[4-[4-[(3S)-3-methylmorpholin-4-yl]-6-(methylsulfonylmethyl)pyrimidin-2-yl]phenyl]-3-phenyl-thiourea], the IC50 in assay [1] (Homo sapiens, MDA-MB-468, Test (c)) amounted to 1930 nM; in assay [1] (Test (c)), 1740 nM; at recombinant mTOR, 550 nM.

By IC50 is commonly meant the midpoint of a concentration-inhibition curve.
